In patent publication US7507717B2 (Xenome Ltd., priority 2002, dated 2009):
pIC50: −log10 of the molar value. Residues, ends and D or L forms follow the SMILES beside them.

How the values were obtained:
[1] = biological target: T1, human noradrenaline transporter (hNET) (Homo sapiens, UniProt P23975); test: cell-based
T1 construct: expressed in transfected cells; host or cells: COS-7 cells (ATCC), transient transfection with metafectene

[2] = biological target: T1, human noradrenaline transporter (hNET); test: biochemical; type: binding; conditions: Av IC50 Displacement of 3H-nisoxetine from hNET

T1 sequence (P23975 whole entry): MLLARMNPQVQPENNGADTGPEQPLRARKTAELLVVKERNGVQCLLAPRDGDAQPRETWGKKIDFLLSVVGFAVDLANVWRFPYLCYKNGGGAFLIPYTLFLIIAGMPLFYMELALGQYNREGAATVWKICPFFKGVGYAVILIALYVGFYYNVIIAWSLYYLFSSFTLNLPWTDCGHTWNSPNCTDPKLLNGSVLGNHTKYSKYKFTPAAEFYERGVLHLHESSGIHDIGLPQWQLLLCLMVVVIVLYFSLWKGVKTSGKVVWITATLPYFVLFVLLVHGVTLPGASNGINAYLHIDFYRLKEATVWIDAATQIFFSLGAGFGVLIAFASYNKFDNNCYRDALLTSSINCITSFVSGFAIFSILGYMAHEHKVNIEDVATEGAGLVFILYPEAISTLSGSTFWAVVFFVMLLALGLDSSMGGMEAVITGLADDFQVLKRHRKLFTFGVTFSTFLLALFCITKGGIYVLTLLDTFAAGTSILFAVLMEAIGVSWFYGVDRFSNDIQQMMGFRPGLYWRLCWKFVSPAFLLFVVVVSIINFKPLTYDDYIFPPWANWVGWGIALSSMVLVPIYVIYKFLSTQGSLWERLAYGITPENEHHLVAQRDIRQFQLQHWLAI

## CC(C)C[C@H](NC(=O)[C@H](CC(=O)O)NC(=O)[C@H](CCCCN)NC(=O)[C@@H](N)Cc1c[nH]c2ccccc12)C(=O)N[C@H]1CSSC[C@@H](C(N)=O)NC(=O)[C@@H]2CCCN2C(=O)[C@H](Cc2c[nH]cn2)NC(=O)[C@@H]2CSSC[C@H](NC1=O)C(=O)NCC(=O)N[C@@H](Cc1ccc(O)cc1)C(=O)N[C@@H](CCCCN)C(=O)N[C@@H](CC(C)C)C(=O)N2 [compound 85] (HELM PEPTIDE1{W.K.D.L.C.C.G.Y.K.L.C.H.P.C.[am]}$PEPTIDE1,PEPTIDE1,5:R3-14:R3|PEPTIDE1,PEPTIDE1,6:R3-11:R3$$$V2.0)
[1]
  pIC50: 7.05
[2]
  pIC50: 6.51
